Assay results reported in PubChem BioAssay AID192 (DTP/NCI, 2004).
“And” between values parts separate entries of the source, which are not always exact repeats. Identical values can stand only once. Inconclusive results and toxic doses are left out. The calls were made as follows: active = survival T/C of 150% or more; inactive = T/C below 125% in these data.

Test system: BDF1 mice, B16 melanoma ip, median survival T/C
Experiment: NCI In Vivo Anticancer Drug Screen. Data for tumor model B16 Melanoma (intraperitoneal) in B6D2F1 (BDF1) mice
Conditions: endpoint: median survival time, higher = longer survival
Procedure, shortened: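 Compounds were tested in mice carrying transplantable tumors. Survival or tumor size was recorded, and each value is the treated-group measurement (T) divided by that of the vehicle-treated control group (C).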

[1] = dose: 100.0 mg/kg/injection, schedule: Q01DX009 (ip), vehicle: saline with Tween-80
[2] = dose: 100.0 mg/kg/injection, schedule: Q01DX009 (ip), vehicle: Klucel (hydroxypropylcellulose) (HPC)
[3] = dose: 200.0 mg/kg/injection, schedule: Q01DX009 (ip), vehicle: Klucel (hydroxypropylcellulose) (HPC)
[4] = dose: 400.0 mg/kg/injection, schedule: Q01DX009 (ip), vehicle: Klucel (hydroxypropylcellulose) (HPC)
[5] = dose: 50.0 mg/kg/injection, schedule: Q01DX009 (ip), vehicle: Klucel (hydroxypropylcellulose) (HPC)
[6] = dose: 12.5 mg/kg/injection, schedule: Q01DX009 (ip), vehicle: saline
[7] = dose: 25.0 mg/kg/injection, schedule: Q01DX009 (ip), vehicle: saline
[8] = dose: 50.0 mg/kg/injection, schedule: Q01DX009 (ip), vehicle: saline
[9] = dose: 25.0 mg/kg/injection, schedule: Q01DX009 (ip), vehicle: saline with Tween-80
[10] = dose: 50.0 mg/kg/injection, schedule: Q01DX009 (ip), vehicle: saline with Tween-80
[11] = dose: 0.5 mg/kg/injection, schedule: Q01DX009 (ip), vehicle: saline
[12] = dose: 2.0 mg/kg/injection, schedule: Q01DX009 (ip), vehicle: saline

Measured: T/C

CN(C)c1ccc2cc(S(=O)(=O)O)cc(O)c2c1
inactive: [1] 97 % of control | dose: 200.0 mg/kg/injection, schedule: Q01DX009 (ip), vehicle: saline with Tween-80 94 % of control

O=NN(CCCl)C(=O)NCCO
active: dose: 3.12 mg/kg/injection, schedule: Q01DX009 (ip), vehicle: water 176 % of control

CC(CC(O)c1ccccc1)c1ccccc1 (stereo not drawn)
inactive: [2] 102 % of control | [3] 100 % of control | [4] 92 % of control

O=C1C(N2CCCCC2)=C(N2CC2)C(=O)C(N2CCCCC2)=C1N1CC1
inactive: dose: 2.5 mg/kg/injection, schedule: Q01DX009 (ip), vehicle: saline 94 % of control and 97 % of control | dose: 5.0 mg/kg/injection, schedule: Q01DX009 (ip), vehicle: saline 121 % of control

CCCC1CC[N-]CC1.CCCC1CC[N-]CC1.CCCC1CC[N-]CC1.CCCC1CC[N-]CC1.CS(C)=O.CS(C)=O.[Cl-].[Cl-].[Cl-].[Cl-].[Cl][Rh][Cl].[Rh+3]
inactive: dose: 1.56 mg/kg/injection, schedule: Q01DX009 (ip), vehicle: water 105 % of control | dose: 3.13 mg/kg/injection, schedule: Q01DX009 (ip), vehicle: water 107 % of control | dose: 6.25 mg/kg/injection, schedule: Q01DX009 (ip), vehicle: water 120 % of control | dose: 25.0 mg/kg/injection, schedule: Q01DX009 (ip), vehicle: water 124 % of control

N#CC(Nc1ccccc1)c1ccccc1 (stereo not drawn)
inactive: [5] 100 % of control | [2] 94 % of control

CN(C)CCCN1c2ccccc2CCc2ccccc21
inactive: dose: 3.12 mg/kg/injection, schedule: Q01DX009 (ip), vehicle: saline 95 % of control | dose: 6.25 mg/kg/injection, schedule: Q01DX009 (ip), vehicle: saline 102 % of control | [6] 104 % of control | [7] 93 % of control | [8] 104 % of control

OC1CCCC2CCCNC12 (stereo not drawn) (tested in a mixture with another compound)
inactive: [9] 90 % of control | [10] 95 % of control | [1] 86 % of control

CCOC1=C(N2CC2)C(=O)C(OCC)=C(N2CC2)C1=O
inactive: [11] 105 % of control | [12] 121 % of control

COc1cccc2c1C(=O)c1c(O)c3c(c(O)c1C2=O)CC(O)(C(C)=O)CC3O (stereo not drawn)
inactive: dose: 0.12 mg/kg/injection, schedule: Q01DX009 (ip), vehicle: saline 91 % of control | dose: 0.12 mg/kg/injection, schedule: Q04DX003 (ip), vehicle: saline 94 % of control | dose: 0.25 mg/kg/injection, schedule: Q04DX003 (ip), vehicle: saline 100 % of control | [11] 86 % of control | dose: 0.5 mg/kg/injection, schedule: Q04DX003 (ip), vehicle: saline 105 % of control | dose: 1.0 mg/kg/injection, schedule: Q01DX009 (ip), vehicle: saline 94 % of control | dose: 1.0 mg/kg/injection, schedule: Q04DX003 (ip), vehicle: saline 97 % of control | [12] 102 % of control | dose: 2.0 mg/kg/injection, schedule: Q04DX003 (ip), vehicle: saline 102 % of control | dose: 4.0 mg/kg/injection, schedule: Q01DX009 (ip), vehicle: saline 100 % of control | dose: 4.0 mg/kg/injection, schedule: Q04DX003 (ip), vehicle: saline 108 % of control | dose: 8.0 mg/kg/injection, schedule: Q01DX009 (ip), vehicle: saline 105 % of control

CC#CCOCC(CCl)OC(=O)Nc1ccccc1 (stereo not drawn)
inactive: dose: 100.0 mg/kg/injection, schedule: Q04DX003 (ip), vehicle: saline with Tween-80 93 % of control | dose: 200.0 mg/kg/injection, schedule: Q04DX003 (ip), vehicle: saline with Tween-80 97 % of control | dose: 400.0 mg/kg/injection, schedule: Q04DX003 (ip), vehicle: saline with Tween-80 90 % of control

O=C(CN1C(=O)c2ccccc2C1=O)OC(c1ccccc1)c1ccccc1
inactive: [5] 90 % of control | [2] 90 % of control

CCCCCCCCCCN1CCC(N2CCCCC2)CC1
inactive: [6] 91 % of control | [7] 93 % of control | [8] 98 % of control | dose: 100.0 mg/kg/injection, schedule: Q01DX009 (ip), vehicle: saline 87 % of control

CCOC(=O)/C=C/c1c[nH]c(C(=O)OCC)c1
inactive: [5] 102 % of control | [2] 96 % of control | [3] 99 % of control | [4] 98 % of control

CCN(CC)CCCNC(=S)NC(C)(C)CC(C)=O
inactive: dose: 75.0 mg/kg/injection, schedule: Q04DX003 (ip), vehicle: Klucel (hydroxypropylcellulose) (HPC) 95 % of control | dose: 150.0 mg/kg/injection, schedule: Q04DX003 (ip), vehicle: Klucel (hydroxypropylcellulose) (HPC) 92 % of control | dose: 300.0 mg/kg/injection, schedule: Q04DX003 (ip), vehicle: Klucel (hydroxypropylcellulose) (HPC) 95 % of control

CCCN(/C=C/C=C/C=[N+](CCC)CCC)CCC
inactive: dose: 0.03 mg/kg/injection, schedule: Q01DX009 (ip), vehicle: saline 107 % of control | dose: 0.05 mg/kg/injection, schedule: Q01DX009 (ip), vehicle: saline 109 % of control | dose: 0.1 mg/kg/injection, schedule: Q01DX009 (ip), vehicle: saline 103 % of control | dose: 0.2 mg/kg/injection, schedule: Q01DX009 (ip), vehicle: saline 96 % of control

Cc1nn(-c2ccccc2)c(N)c1C#N
inactive: dose: 25.0 mg/kg/injection, schedule: Q01DX009 (ip), vehicle: Klucel (hydroxypropylcellulose) (HPC) 100 % of control | [5] 93 % of control | [2] 103 % of control

Cc1ccc(S(=O)(=O)Nc2ccccc2-c2nc3c(Cl)ccc(Cl)c3c(=O)o2)cc1
inactive: [2] 105 % of control | [3] 92 % of control

NCCCN=c1ccc2c3c1c(O)c1c(O)ccc(=O)c1c3[nH]n2CCNCCO
active: dose: 0.5 mg/kg/injection, schedule: Q01DX009 (ip), vehicle: water 158 % of control and 197 % of control | dose: 1.0 mg/kg/injection, schedule: Q01DX009 (ip), vehicle: water 187 % of control and 227 % of control | dose: 2.0 mg/kg/injection, schedule: Q01DX009 (ip), vehicle: water 216 % of control and 242 % of control | dose: 4.0 mg/kg/injection, schedule: Q01DX009 (ip), vehicle: water 216 % of control and 244 % of control | dose: 8.0 mg/kg/injection, schedule: Q01DX009 (ip), vehicle: water 216 % of control and 338 % of control | dose: 16.0 mg/kg/injection, schedule: Q01DX009 (ip), vehicle: water 158 % of control

O=C(N/N=C/c1ccc(N(CCCl)CCCl)cc1)c1ccc(C(=O)N/N=C/c2ccc(N(CCCl)CCCl)cc2)cc1
inactive: dose: 25.0 mg/kg/injection, schedule: Q04DX003 (ip), vehicle: Klucel (hydroxypropylcellulose) (HPC) 97 % of control | dose: 50.0 mg/kg/injection, schedule: Q04DX003 (ip), vehicle: Klucel (hydroxypropylcellulose) (HPC) 90 % of control and 100 % of control | dose: 100.0 mg/kg/injection, schedule: Q04DX003 (ip), vehicle: Klucel (hydroxypropylcellulose) (HPC) 97 % of control | dose: 200.0 mg/kg/injection, schedule: Q04DX003 (ip), vehicle: Klucel (hydroxypropylcellulose) (HPC) 90 % of control and 95 % of control

CCSCCC1(CCC(C)C)C(=O)NC(=Nc2ccccc2)NC1=O (stereo not drawn)
inactive: [10] 91 % of control | [1] 89 % of control | dose: 400.0 mg/kg/injection, schedule: Q01DX009 (ip), vehicle: saline with Tween-80 96 % of control

C/C(=C\c1ccc(C)cc1)[N+](=O)[O-]
inactive: [9] 89 % of control | [10] 96 % of control

COc1cc2c(c(OC)c1O)-c1ccc(OC)c(=O)cc1[C@@H](NC(=O)C(F)(F)F)CC2
inactive: dose: 0.62 mg/kg/injection, schedule: Q01DX009 (ip), vehicle: Klucel (hydroxypropylcellulose) (HPC) 121 % of control | dose: 1.25 mg/kg/injection, schedule: Q01DX009 (ip), vehicle: Klucel (hydroxypropylcellulose) (HPC) 117 % of control and 124 % of control | dose: 2.5 mg/kg/injection, schedule: Q01DX009 (ip), vehicle: Klucel (hydroxypropylcellulose) (HPC) 116 % of control | dose: 5.0 mg/kg/injection, schedule: Q01DX009 (ip), vehicle: Klucel (hydroxypropylcellulose) (HPC) 118 % of control

C[C@@H]1CC2=CC(=O)CC[C@@H]2[C@H]2CC[C@@]3(C)[C@@H](CC[C@]3(C)O)[C@@H]21
inactive: [9] 102 % of control | [10] 92 % of control and 113 % of control | [1] 97 % of control and 108 % of control
